What was measured:
[1] = tested on: Staphylococcus aureus-SMITH (GC 4543); test: Acute lethal infection in mice (ED50); format: in vivo; details: female CD-1 mice, intraperitoneal challenge, intravenous dose 30 min. after infection, 7 day survival ratios
Outline: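 Female CD-1 mice (20 ± 1-2 g) were infected intraperitoneally with enough bacteria, suspended in Trypticase Soy Broth or hog gastric mucin, to kill untreated controls within 24-48 hr. Compound in saline or 5% dextrose was given intravenously 30 min after infection. ED50 came from pooled 7-day survival over 3 tests.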

Escherichia coli = test: In vitro antibacterial evaluation: minimum inhibitory concentration (MIC), broth dilution method; format: cell-based
Outline: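 NCCLS M7-A2 broth dilution; Muller-Hinton II […]; 5×10^5 CFU/mL; 64-0.06 μg/mL. MIC = lowest concentration with no growth.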

Staphylococcus sp. = test: as above; format: cell-based; details: for MIC Staphylococcus aureus-SMITH (GC 4543): strain GC 4543; for MIC Staphylococcus haemolyticus (GC 4546): strain GC 4546; for MIC Coagulase Negative Staphylococcus (GC 4547): strain GC 4547; for MIC Coagulase Negative Staphylococcus (GC 4548): strain GC 4548; for MIC Coagulase Negative Staphylococcus (GC 4549): strain GC 4549; for MIC Coagulase Negative Staphylococcus (GC 4551): strain GC 4551; for MIC Coagulase Negative Staphylococcus (GC 6257): strain GC 6257
Outline: (§1)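 Inoculum: 5×10^5 CFU/mL. Range: 64-0.06 μg/mL. Medium: Muller-Hinton II […]; NCCLS M7-A2 broth dilution. Endpoint: lowest concentration inhibiting growth. Strains include methicillin-, penicillin- and/or vancomycin-resistant clinical isolates.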

Streptococcus sp. = test: as above; format: cell-based
Outline: as §1

Enterococcus sp. = test: as above; format: cell-based
Outline: as §1

[2] = broth dilution, 5×10^5 CFU/mL, 18 hours at 35° C.
[3] = strain ATCC 29213, broth dilution, 18 hours at 35° C.
[4] = strain GC 1131, broth dilution, 18 hours at 35° C.
[5] = strain GC 3051, broth dilution, 18 hours at 35° C.
[6] = strain GC 3053, broth dilution, 18 hours at 35° C.
[7] = strain GC 4541, broth dilution, 18 hours at 35° C.
[8] = strain GC 4542, broth dilution, 18 hours at 35° C.
[9] = strain GC 4544, broth dilution, 18 hours at 35° C.
[10] = strain GC 4545, broth dilution, 18 hours at 35° C.
[11] = broth dilution, inoculum 5×10^5 CFU/mL, 18 hours at 35° C.
[12] = 5×10^5 CFU/mL, 18 hours at 35° C.
[13] = broth dilution, 18 hours at 35° C.

COc1ccc(Oc2cccc(C3OCC4OC(OC5C(CO)OC(Oc6ccc(CC7NC(=O)C(C(C)c8ccccc8)NC(=O)CNC(=O)C(CO)NC(=O)C(C(O)C8CNC(=N)N8C8OC(CO)C(O)C(O)C8O)NC(=O)C(C(O)C8CNC(=N)N8)NC7=O)cc6)C(O)C5O)C(O)C(O)C4O3)c2)cc1 (stereo not shown) [Example 180]
4 µg/mL: MIC Enterococcus faecalis (ATCC 29212) (Enterococcus sp.; [11]) | MIC Enterococcus faecalis (GC 2242) (Enterococcus sp.; [11]) | MIC Enterococcus faecalis (ATCC 29212) (Enterococcus sp.; strain ATCC 29212) | MIC Enterococcus faecalis (GC 2242) (Enterococcus sp.; strain GC 2242)
2 µg/mL: MIC Escherichi coli (GC 4560) (Escherichia coli; strain GC 4560) | MIC Staphylococcus aureus (ATCC 29213) (Staphylococcus sp.; [2]) | MIC Staphylococcus aureus (GC 1131) (Staphylococcus sp.; [2]) | MIC Staphylococcus aureus (GC 3053) (Staphylococcus sp.; [2]) | MIC Staphylococcus aureus (GC 4541) (Staphylococcus sp.; [2]) | MIC Staphylococcus aureus (GC 4542) (Staphylococcus sp.; [2]) | MIC Staphylococcus aureus (GC 4544) (Staphylococcus sp.; [2]) | MIC Staphylococcus aureus (GC 4545) (Staphylococcus sp.; [2]) | MIC Staphylococcus aureus (ATCC 29213) (Staphylococcus sp.; [3]) | MIC Staphylococcus aureus (GC 1131) (Staphylococcus sp.; [4]) | MIC Staphylococcus aureus (GC 3053) (Staphylococcus sp.; [6]) | MIC Staphylococcus aureus (GC 4541) (Staphylococcus sp.; [7]) | MIC Staphylococcus aureus (GC 4542) (Staphylococcus sp.; [8]) | MIC Staphylococcus aureus-SMITH (GC 4543) (Staphylococcus sp.) | MIC Staphylococcus aureus (GC 4544) (Staphylococcus sp.; [9]) | MIC Staphylococcus aureus (GC 4545) (Staphylococcus sp.; [10]) | MIC Staphylococcus haemolyticus (GC 4546) (Staphylococcus sp.) | MIC Coagulase Negative Staphylococcus (GC 4547) (Staphylococcus sp.) | MIC Enterococcus avium (GC 4558) (Enterococcus sp.; [11]) | MIC Enterococcus faecalis (GC 2691) (Enterococcus sp.; [11]) | MIC Enterococcus faecalis (GC 3059) (Enterococcus sp.; [11]) | MIC Enterococcus faecalis (GC 4552) (Enterococcus sp.; [11]) | MIC Enterococcus faecalis (GC 4553) (Enterococcus sp.; [11]) | MIC Enterococcus faecalis (GC 4554) (Enterococcus sp.; [11]) | MIC Enterococcus faecalis (GC 6189) (Enterococcus sp.; [11]) | MIC Enterococcus faecium (GC 2243) (Enterococcus sp.; [11]) | MIC Enterococcus faecium (GC 4556) (Enterococcus sp.; [11]) | MIC Enterococcus faecium (GC 4557) (Enterococcus sp.; [11]) | MIC Enterococcus faecium (GC 2243) (Enterococcus sp.; strain GC 2243) | MIC Enterococcus faecalis (GC 2691) (Enterococcus sp.; strain GC 2691) | MIC Enterococcus faecalis (GC 3059) (Enterococcus sp.; strain GC 3059) | MIC Enterococcus faecalis (GC 4552) (Enterococcus sp.; strain GC 4552) | MIC Enterococcus faecalis (GC 4553) (Enterococcus sp.; strain GC 4553) | MIC Enterococcus faecalis (GC 4554) (Enterococcus sp.; strain GC 4554) | MIC Enterococcus faecium (GC 4556) (Enterococcus sp.; strain GC 4556) | MIC Enterococcus faecium (GC 4557) (Enterococcus sp.; strain GC 4557) | MIC Enterococcus avium (GC 4558) (Enterococcus sp.; strain GC 4558) | MIC Enterococcus faecalis (GC 6189) (Enterococcus sp.; strain GC 6189)
64 µg/mL: MIC Escherichia coli (GC 4559) (Escherichia coli; strain GC 4559)
1 µg/mL: MIC Staphylococcus aureus (GC 3051) (Staphylococcus sp.; [2]) | MIC Staphylococcus aureus (GC 3051) (Staphylococcus sp.; [5]) | MIC Coagulase Negative Staphylococcus (GC 4548) (Staphylococcus sp.) | MIC Coagulase Negative Staphylococcus (GC 4549) (Staphylococcus sp.) | MIC Coagulase Negative Staphylococcus (GC 4551) (Staphylococcus sp.)
>64 µg/mL: MIC Escherichia coli (ATCC 25922) (Escherichia coli; strain ATCC 25922)
0.5 µg/mL: MIC Coagulase Negative Staphylococcus (GC 6257) (Staphylococcus sp.)
0.05 mg/kg: median effective dose (ED50), Staphylococcus aureus-SMITH (GC 4543) [1]
<0.06 µg/mL: MIC Streptococcus agalactiae (GC 4564) (Streptococcus sp.; [11]) | MIC Streptococcus pneumoniae (ATCC 6301) (Streptococcus sp.; [11]) | MIC Streptococcus pneumoniae (GC 1894) (Streptococcus sp.; [11]) | MIC Streptococcus pneumoniae (GC 4565) (Streptococcus sp.; [11]) | MIC Streptococcus pyogenes (GC 4563) (Streptococcus sp.; [11]) | MIC Streptococcus pneumoniae (ATCC 6301) (Streptococcus sp.; strain ATCC 6301) | MIC Streptococcus pneumoniae (GC 1894) (Streptococcus sp.; strain GC 1894) | MIC Streptococcus pyogenes (GC 4563) (Streptococcus sp.; strain GC 4563) | MIC Streptococcus agalactiae (GC 4564) (Streptococcus sp.; strain GC 4564) | MIC Streptococcus pneumoniae (GC 4565) (Streptococcus sp.; strain GC 4565)

CC(c1ccccc1)C1NC(=O)CNC(=O)C(CO)NC(=O)C(C(O)C2CNC(=N)N2C2OC(CO)C(O)C(O)C2O)NC(=O)C(C(O)C2CNC(=N)N2)NC(=O)C(Cc2ccc(OC3OC(CO)C(OC4OC5COC(CC6CCN(C(=O)OCc7ccccc7)CC6)OC5C(O)C4O)C(O)C3O)cc2)NC1=O (stereo not shown) [Example 113]
0.12 µg/mL: MIC Streptococcus agalactiae (GC 4564) (Streptococcus sp.; [2])
32 µg/mL: MIC Escherichia coli (ATCC 25922) (Escherichia coli; [12]) | MIC Escherichia coli (GC 4559) (Escherichia coli; [12])
0.26 mg/kg: median effective dose (ED50), Staphylococcus aureus-SMITH (GC 4543) [1]
4 µg/mL: MIC Enterococccus faecalis (GC 2691) (Enterococcus sp.; [2]) | MIC Enterococcus faecalis (GC 2242) (Enterococcus sp.; [2])
2 µg/mL: MIC Staphylococcus aureus (GC 1131) (Staphylococcus sp.; strain GC 1131) | MIC Staphylococcus aureus (GC 1131) (Staphylococcus sp.; [4]) | MIC Staphylococcus aureus (GC 4544) (Staphylococcus sp.; strain GC 4544) | MIC Staphylococcus aureus (GC 4544) (Staphylococcus sp.; [9]) | MIC Enterococccus avium (GC 4558) (Enterococcus sp.; [2]) | MIC Enterococccus faecalis (ATCC 29212) (Enterococcus sp.; [2]) | MIC Enterococccus faecalis (GC 3059) (Enterococcus sp.; [2]) | MIC Enterococccus faecalis (GC 4552) (Enterococcus sp.; [2]) | MIC Enterococccus faecalis (GC 4553) (Enterococcus sp.; [2]) | MIC Enterococccus faecalis (GC 4554) (Enterococcus sp.; [2]) | MIC Enterococccus faecalis (GC 6189) (Enterococcus sp.; [2]) | MIC Enterococccus faecium (GC 2243) (Enterococcus sp.; [2]) | MIC Enterococccus faecium (GC 4556) (Enterococcus sp.; [2]) | MIC Enterococccus faecium (GC 4557) (Enterococcus sp.; [2])
1 µg/mL: MIC Escherichia coli (GC 4560) (Escherichia coli; [12]) | MIC Staphylococcus aureus (ATCC 29213) (Staphylococcus sp.; strain ATCC 29213) | MIC Staphylococcus aureus (ATCC 29213) (Staphylococcus sp.; [3]) | MIC Staphylococcus aureus (GC 3051) (Staphylococcus sp.; strain GC 3051) | MIC Staphylococcus aureus (GC 3051) (Staphylococcus sp.; [5]) | MIC Staphylococcus aureus (GC 3053) (Staphylococcus sp.; strain GC 3053) | MIC Staphylococcus aureus (GC 3053) (Staphylococcus sp.; [6]) | MIC Staphylococcus aureus (GC 4541) (Staphylococcus sp.; strain GC 4541) | MIC Staphylococcus aureus (GC 4541) (Staphylococcus sp.; [7]) | MIC Staphylococcus aureus (GC 4542) (Staphylococcus sp.; strain GC 4542) | MIC Staphylococcus aureus (GC 4542) (Staphylococcus sp.; [8]) | MIC Staphylococcus aureus-SMITH (GC 4543) (Staphylococcus sp.; 18 hours at 35° C.) | MIC Staphylococcus aureus-SMITH (GC 4543) (Staphylococcus sp.; [13]) | MIC Staphylococcus aureus (GC 4545) (Staphylococcus sp.; strain GC 4545) | MIC Staphylococcus aureus (GC 4545) (Staphylococcus sp.; [10]) | MIC Staphylococcus haemolyticus (GC 4546) (Staphylococcus sp.) | MIC Staphylococcus haemolyticus (GC 4546) (Staphylococcus sp.; [13]) | MIC Coagulase Negative Staphylococcus (GC 4547) (Staphylococcus sp.) | MIC Coagulase Negative Staphylococcus (GC 4547) (Staphylococcus sp.; [13]) | MIC Coagulase Negative Staphylococcus (GC 4549) (Staphylococcus sp.) | MIC Coagulase Negative Staphylococcus (GC 4549) (Staphylococcus sp.; [13]) | MIC Coagulase Negative Staphylococcus (GC 4551) (Staphylococcus sp.) | MIC Coagulase Negative Staphylococcus (GC 4551) (Staphylococcus sp.; [13])
<0.06 µg/mL: MIC Streptococcus pneumoniae (GC 1894) (Streptococcus sp.; [2]) | MIC Streptococcus pneumoniae (GC 4565) (Streptococcus sp.; [2]) | MIC Streptococcus pneumonine (ATCC 6301) (Streptococcus sp.; [2]) | MIC Streptococcus pyogenes (GC 4563) (Streptococcus sp.; [2])
0.5 µg/mL: MIC Coagulase Negative Staphylococcus (GC 4548) (Staphylococcus sp.) | MIC Coagulase Negative Staphylococcus (GC 4548) (Staphylococcus sp.; [13]) | MIC Coagulase Negative Staphylococcus (GC 6257) (Staphylococcus sp.) | MIC Coagulase Negative Staphylococcus (GC 6257) (Staphylococcus sp.; [13])

Source: US8247211B2, “Glycopeptide antibiotics” (American Cyanamid Company, priority 2001, dated 2012)
